In patent publication US9149038B2, “4-amino-6-(heterocyclic)picolinates and 6-amino-2-(heterocyclic)pyrimidine-4-carboxylates and their use as herbicides” (Dow AgroSciences LLC, priority 2013, dated 2015):
Where two headings read alike, the source gives them in different places.

Tests used:
[1] = test system: Key Broadleaf Weed and Crop Species; test: Post-Emergent Test II: postemergent herbicidal activity, visual rating after 14 d (Table 7); type: in vivo; conditions: post-emergence, 336 h; for pest or weed control at 35 g/ha: 35 g ai/ha; for pest or weed control at 70 g/ha: 70 g ai/ha; for pest or weed control at 140 g/ha: 140 g ai/ha
Method in brief: (§1)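 Greenhouse-grown plants at the first or second true leaf stage (7-21 d, ~15 h photoperiod, 23-29° C day) were sprayed with compound in acetone/DMSO-based aqueous spray containing crop oil concentrate and Triton X-155 at 187 L/ha. Injury versus untreated plants was rated visually after 14 d on a 0-100 scale.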

[2] = test system: Key Grass and Sedge Weeds as well as Grass Crops; test: Post-Emergent Test II: postemergent herbicidal activity, visual rating after 14 d (Table 8); type: in vivo; conditions: post-emergence, 336 h; for pest or weed control at 35 g/ha: 35 g ai/ha; for pest or weed control at 70 g/ha: 70 g ai/ha; for pest or weed control at 140 g/ha: 140 g ai/ha
Method in brief: as §1

[3] = lambsquarters (Chenopodium album), read-out: Visual Growth Reduction (%) 14 Days After Application CHEAL
[4] = oilseed rape, canola (Brassica napus), read-out: Visual Growth Reduction (%) 14 Days After Application BRSNN
[5] = redroot pigweed (Amaranthus retroflexus), read-out: Visual Growth Reduction (%) 14 Days After Application AMARE
[6] = sunflower (Helianthus annuus), read-out: Visual Growth Reduction (%) 14 Days After Application HELAN
[7] = velvetleaf (Abutilon theophrasti), read-out: Visual Growth Reduction (%) 14 Days After Application ABUTH
[8] = wild poinsettia (Euphorbia heterophylla), read-out: Visual Growth Reduction (%) 14 Days After Application EPHHL
[9] = barnyardgrass (Echinochloa crus-galli), read-out: Visual Growth Reduction (%) 14 Days After Application ECHCG
[10] = giant foxtail (Setaria faberi), read-out: Visual Growth Reduction (%) 14 Days After Application SETFA
[11] = maize, corn (Zea mays), read-out: Visual Growth Reduction (%) 14 Days After Application ZEAMX
[12] = rice (Oryza sativa), read-out: Visual Growth Reduction (%) 14 Days After Application ORYSA
[13] = wheat, spring (Triticum aestivum), read-out: Visual Growth Reduction (%) 14 Days After Application TRZAS
[14] = yellow nutsedge (Cyperus esculentus), read-out: Visual Growth Reduction (%) 14 Days After Application CYPES

SMILES | pest or weed control at 35 g/ha [1, 3] | pest or weed control at 70 g/ha [1, 3] | pest or weed control at 140 g/ha [1, 3] | pest or weed control at 35 g/ha [1, 4] | pest or weed control at 70 g/ha [1, 4] | pest or weed control at 140 g/ha [1, 4] | pest or weed control at 35 g/ha [1, 5] | pest or weed control at 70 g/ha [1, 5] | pest or weed control at 140 g/ha [1, 5] | pest or weed control at 35 g/ha [1, 6] | pest or weed control at 70 g/ha [1, 6] | pest or weed control at 140 g/ha [1, 6] | pest or weed control at 35 g/ha [1, 7] | pest or weed control at 70 g/ha [1, 7] | pest or weed control at 140 g/ha [1, 7] | pest or weed control at 35 g/ha [1, 8] | pest or weed control at 70 g/ha [1, 8] | pest or weed control at 140 g/ha [1, 8] | pest or weed control at 35 g/ha [2, 9] | pest or weed control at 70 g/ha [2, 9] | other results
CC1(C)Oc2ccc(-c3nc(C(=O)O)c(Cl)c(N)c3F)cc2O1 [Compound 19] | 0 to 29% | 0 to 29% | 0 to 29% | 0 to 29% | 45 to 59% | 60 to 74% | 85 to 94% | 85 to 94% | 85 to 94% | 0 to 29% | 0 to 29% | 30 to 44% | 0 to 29% | 60 to 74% | 60 to 74% | 95 to 100% | 95 to 100% | 95 to 100% | 85 to 94% | 85 to 94% | pest or weed control at 140 g/ha [2, 9]: 95 to 100%; pest or weed control at 35 g/ha [2, 10]: 0 to 29%; pest or weed control at 70 g/ha [2, 10]: 0 to 29%; pest or weed control at 140 g/ha [2, 10]: 0 to 29%; pest or weed control at 35 g/ha [2, 11]: 60 to 74%; pest or weed control at 70 g/ha [2, 11]: 60 to 74%; pest or weed control at 140 g/ha [2, 11]: 60 to 74%; pest or weed control at 35 g/ha [2, 12]: 0 to 29%; pest or weed control at 70 g/ha [2, 12]: 0 to 29%; pest or weed control at 140 g/ha [2, 12]: 0 to 29%; pest or weed control at 35 g/ha [2, 13]: 0 to 29%; pest or weed control at 70 g/ha [2, 13]: 0 to 29%; pest or weed control at 140 g/ha [2, 13]: 0 to 29%; pest or weed control at 35 g/ha [2, 14]: 95 to 100%; pest or weed control at 70 g/ha [2, 14]: 95 to 100%; pest or weed control at 140 g/ha [2, 14]: 95 to 100%
COC(=O)c1nc(-c2ccc3c(c2)OC(C)O3)c(F)c(N)c1Cl (stereo not drawn) [Compound 20] | 0 to 29% | 30 to 44% | 75 to 84% | 0 to 29% | 0 to 29% | 30 to 44% | 60 to 74% | 95 to 100% | 95 to 100% | 60 to 74% | 75 to 84% | 85 to 94% | 30 to 44% | 60 to 74% | 95 to 100% | 45 to 59% | 85 to 94% | 85 to 94% | 60 to 74% | 75 to 84% | pest or weed control at 140 g/ha [2, 9]: 85 to 94%; pest or weed control at 35 g/ha [2, 10]: 45 to 59%; pest or weed control at 70 g/ha [2, 10]: 75 to 84%; pest or weed control at 140 g/ha [2, 10]: 85 to 94%; pest or weed control at 35 g/ha [2, 11]: 30 to 44%; pest or weed control at 70 g/ha [2, 11]: 45 to 59%; pest or weed control at 140 g/ha [2, 11]: 60 to 74%; pest or weed control at 35 g/ha [2, 12]: 0 to 29%; pest or weed control at 70 g/ha [2, 12]: 30 to 44%; pest or weed control at 140 g/ha [2, 12]: 30 to 44%; pest or weed control at 35 g/ha [2, 13]: 0 to 29%; pest or weed control at 70 g/ha [2, 13]: 0 to 29%; pest or weed control at 140 g/ha [2, 13]: 0 to 29%; pest or weed control at 35 g/ha [2, 14]: 45 to 59%; pest or weed control at 70 g/ha [2, 14]: 75 to 84%; pest or weed control at 140 g/ha [2, 14]: 85 to 94%
COC(=O)c1nc(-c2cc3c(cc2F)OC(F)(F)O3)c(F)c(N)c1F [Compound 21] | 0 to 29% | 0 to 29% | 0 to 29% | 0 to 29% | 0 to 29% | 0 to 29% | 0 to 29% | 0 to 29% | 0 to 29% | 45 to 59% | 45 to 59% | 60 to 74% | 0 to 29% | 0 to 29% | 0 to 29% | 0 to 29% | 0 to 29% | 0 to 29% | 0 to 29% | 0 to 29% | pest or weed control at 140 g/ha [2, 9]: 0 to 29%; pest or weed control at 35 g/ha [2, 10]: 0 to 29%; pest or weed control at 70 g/ha [2, 10]: 0 to 29%; pest or weed control at 140 g/ha [2, 10]: 60 to 74%; pest or weed control at 35 g/ha [2, 11]: 0 to 29%; pest or weed control at 70 g/ha [2, 11]: 0 to 29%; pest or weed control at 140 g/ha [2, 11]: 45 to 59%; pest or weed control at 35 g/ha [2, 12]: 0 to 29%; pest or weed control at 70 g/ha [2, 12]: 0 to 29%; pest or weed control at 140 g/ha [2, 12]: 0 to 29%; pest or weed control at 35 g/ha [2, 13]: 0 to 29%; pest or weed control at 70 g/ha [2, 13]: 0 to 29%; pest or weed control at 140 g/ha [2, 13]: 0 to 29%; pest or weed control at 35 g/ha [2, 14]: 0 to 29%; pest or weed control at 70 g/ha [2, 14]: 0 to 29%; pest or weed control at 140 g/ha [2, 14]: 0 to 29%
COc1c(C(=O)O)nc(-c2cc3c(cc2F)OC(F)(F)O3)c(F)c1N [Compound 23] | 0 to 29% | 0 to 29% | 0 to 29% | 0 to 29% | 75 to 84% | 85 to 94% | 0 to 29% | 0 to 29% | 0 to 29% | 75 to 84% | 85 to 94% | 85 to 94% | 0 to 29% | 0 to 29% | 0 to 29% | 95 to 100% | 95 to 100% | 95 to 100% | 75 to 84% | 95 to 100% | pest or weed control at 140 g/ha [2, 9]: 95 to 100%; pest or weed control at 35 g/ha [2, 10]: 60 to 74%; pest or weed control at 70 g/ha [2, 10]: 75 to 84%; pest or weed control at 140 g/ha [2, 10]: 75 to 84%; pest or weed control at 35 g/ha [2, 11]: 60 to 74%; pest or weed control at 70 g/ha [2, 11]: 60 to 74%; pest or weed control at 140 g/ha [2, 11]: 60 to 74%; pest or weed control at 35 g/ha [2, 12]: 0 to 29%; pest or weed control at 70 g/ha [2, 12]: 0 to 29%; pest or weed control at 140 g/ha [2, 12]: 0 to 29%; pest or weed control at 35 g/ha [2, 13]: 45 to 59%; pest or weed control at 70 g/ha [2, 13]: 45 to 59%; pest or weed control at 140 g/ha [2, 13]: 60 to 74%; pest or weed control at 35 g/ha [2, 14]: 0 to 29%; pest or weed control at 70 g/ha [2, 14]: 45 to 59%; pest or weed control at 140 g/ha [2, 14]: 45 to 59%
